Assay results from patent US20220143045A1, “PROGESTERONE RECEPTOR ANTAGONIST DOSAGE FORM” (BAYER PHARMA AKTIENGESELLSCHAFT, priority 2013, published 2022).
Where “and” joins values, the source holds several entries; their conditions need not be identical. Equal values may be shown once.

What was measured:
Format in all cases: in vivo, human
[1] = test system: healthy female subjects; experiment: Dose-effect of 84 days treatment: bleeding pattern (non-bleeding rate), daily self-assessment
From the text: • 1. Healthy female subjects, sterilized by tubal ligation • 2. Age at screening: 18-45 years • 3. Body mass index (BMI) at screening: ≥18 and ≤32 kg/m^2 • 4. At least 3 consecutive regular menstrual cycles with a cycle length of 24-35 days before first screening examination according to the subject's history • 5. Absence of clinically relevant abnormal findings in the pre-treatment endometrial biopsy • 6. Adequate venous access (frequent blood sampling)
The subject had to start the intake of the study drugs on the first or second day of menstrual bleeding after the pre-treatment cycle. The pre-treatment cycle started on the first day of the subject's menstrual bleeding after screening examinations had shown that the subject was eligible for further participation. After the pre-treatments cycle treatment was started. The treatment period started with the first and ended with the last intake of compound 1. For each intake day the subject received one bottle containing 4 tablets. The number of tablets taken and the intake time had to be documented in the diary.
The evaluation of bleeding pattern was based on a daily self-assessment of the bleeding intensity by the subject. These assessments were categorized as defined below. The subjects were provided with an explanation of the categories in local language, and were asked to document the bleeding intensity in their diaries accordingly (one entry per day).
Administration of compound 1 occurred during 84 days (multiple doses administration).

[2] = test system: healthy female subjects; experiment: Return of bleeding after end of treatment (84 days); conditions: for Number of days until first bleeding after end of treatment (mean ± SD) / Number of days until first bleeding after end of treatment (min − max): PPS
From the text: (§1) As described in example 2.
The first day of bleeding after the end of the treatment was marked.

[3] = test system: healthy female subjects; experiment: Ovulation inhibition: follicle size, estradiol (E2), progesterone (P)
From the text: Protocol: Randomized Study population of healthy female subjects as described in example 2 above.
Blood samples were obtained from healthy female subjects for the determination of Estradiol (E2), Progesterone (P), luteinizing hormone (LH) and follicle stimulating hormone (FSH) in serum and taken at the same time points as listed below during the pre-treatment cycle, the treatment and follow-up cycle. Transvaginal ultrasound (TVU) was used to monitor ovarian follicular growth during pretreatment (days 9 and 21), treatment (days 7, 14, 21, 28, 35, 42, 49, 56, 63, 70, 77, 84) and follow-up cycle (days 9 and 21).

[4] = test system: healthy female subjects; experiment: Endometrial thickness by transvaginal ultrasound during treatment; conditions: 2 mg, 84 days, versus other dosages (FIG. 2)
Protocol: as §1
The endometrial thickness was measured in the medio-sagittal section as double-layer in millimeters using transvaginal ultrasound.

[5] = 0.5 mg once daily per os, 84 days
[6] = 0.1 mg, n = 11, treatment period
[7] = 0.1 mg, n = 11, treatment period, (third category)
[8] = 0.5 mg, n = 11, treatment period
[9] = 0.5 mg, n = 11, treatment period, (third category)
[10] = 1 mg, n = 12, treatment period, (third category)
[11] = 2 mg, n = 12, treatment period, (third category)
[12] = 5 mg, n = 11, treatment period, (third category)

SMILES: C[C@]12C[C@H](c3ccc(S(C)(=O)=O)cc3)C3=C4CCC(=O)C=C4CC[C@H]3[C@@H]1CC[C@@]2(O)C(F)(F)C(F)(F)F [compound 1, (11β,17β)-17-Hydroxy-11-[4-(methylsulphonyl)phenyl]-17-(pentafluoroethyl)estra-4,9-dien-3-one]
- number of subjects with no further bleeding during the treatment period (out of 11) [1, 5]: 3
- subjects with no further bleeding during the treatment period [1, 5]: 27%
- number of days of bleeding during the treatment period ([1]; 0.1-5 mg once daily per os, 84 days): marked and dose-dependent reduction
- dosage at which 50% of dose-dependent reduction of bleeding is observed ([1]; 84 days treatment, posterior of non-bleeding rate (FIG. 1)): 0.7 mg
- saturation of non-bleeding rate ([1]; from 2 mg up to 5 mg, 84 days): around 95%
- amenorrhea (non-bleeding) ([1]; healthy subjects, dosage of 2 mg): 92.5%
- Number of days until first bleeding after end of treatment (mean ± SD) ([2]; 0.1 mg, n = 11): 12.2 ± 9.9 days
- Number of days until first bleeding after end of treatment (min − max) ([2]; 0.1 mg, n = 11): (3 − 35) days
- Number of days until first bleeding after end of treatment (mean ± SD) ([2]; 0.5 mg, n = 11): 14.8 ± 10.2 days
- Number of days until first bleeding after end of treatment (min − max) ([2]; 0.5 mg, n = 11): ( 1 − 28) days
- Number of days until first bleeding after end of treatment (mean ± SD) ([2]; 1 mg, n = 10): 20.3 ± 6.2 days
- Number of days until first bleeding after end of treatment (min − max) ([2]; 1 mg, n = 10): (8 − 28) days
- Number of days until first bleeding after end of treatment (mean ± SD) ([2]; 2 mg, n = 12): 25 days and 25.8 ± 11.1 days
- Number of days until first bleeding after end of treatment (min − max) ([2]; 2 mg, n = 12): (9 − 52) days
- delayed return of bleeding after treatment, one subject ([2]; 2 mg, single subject): about 52 days
- Number of days until first bleeding after end of treatment (mean ± SD) ([2]; 5 mg, n = 11): 20.9 ± 10.9 days
- Number of days until first bleeding after end of treatment (min − max) ([2]; 5 mg, n = 11): (1 − 38) days
- number of subjects with Follicle size ≤ 13 mm [3, 6]: 1
- percentage of subjects with Follicle size ≤ 13 mm [3, 6]: 9%
- number of subjects with Follicle size > 13 mm + Estradiol > 27.2 pg/mL + Progesterone < 1.57 μg/L [3, 7]: 10
- percentage of subjects with Follicle size > 13 mm + Estradiol > 27.2 pg/mL + Progesterone < 1.57 μg/L [3, 7]: 91%
- number of subjects with Follicle size > 13 mm + Estradiol > 27.2 pg/mL + Progesterone < 1.57 μg/L [3, 8]: 6
- percentage of subjects with Follicle size > 13 mm + Estradiol > 27.2 pg/mL + Progesterone < 1.57 μg/L [3, 8]: 55%
- number of subjects with Follicle size > 13 mm + Estradiol > 27.2 pg/mL + Progesterone < 1.57 μg/L [3, 9]: 5
- percentage of subjects with Follicle size > 13 mm + Estradiol > 27.2 pg/mL + Progesterone < 1.57 μg/L [3, 9]: 45%
- number of subjects with Follicle size > 13 mm + Estradiol > 27.2 pg/mL + Progesterone < 1.57 μg/L ([3]; 1 mg, n = 12, treatment period): 9
- number of subjects with Follicle size ≤ 13 mm ([3]; 1 mg, n = 12, treatment period): 1
- percentage of subjects with Follicle size > 13 mm + Estradiol > 27.2 pg/mL + Progesterone < 1.57 μg/L ([3]; 1 mg, n = 12, treatment period): 75%
- percentage of subjects with Follicle size ≤ 13 mm ([3]; 1 mg, n = 12, treatment period): 8%
- number of subjects with Follicle size > 13 mm + Estradiol > 27.2 pg/mL + Progesterone < 1.57 μg/L [3, 10]: 2
- percentage of subjects with Follicle size > 13 mm + Estradiol > 27.2 pg/mL + Progesterone < 1.57 μg/L [3, 10]: 17%
- number of subjects with Follicle size > 13 mm + Estradiol > 27.2 pg/mL + Progesterone < 1.57 μg/L ([3]; 2 mg, n = 12, treatment period): 11
- percentage of subjects with Follicle size > 13 mm + Estradiol > 27.2 pg/mL + Progesterone < 1.57 μg/L ([3]; 2 mg, n = 12, treatment period): 92%
- number of subjects with Follicle size > 13 mm + Estradiol > 27.2 pg/mL + Progesterone < 1.57 μg/L [3, 11]: 1
- percentage of subjects with Follicle size > 13 mm + Estradiol > 27.2 pg/mL + Progesterone < 1.57 μg/L [3, 11]: 8%
- number of subjects with Follicle size > 13 mm + Estradiol > 27.2 pg/mL + Progesterone < 1.57 μg/L ([3]; 5 mg, n = 11, treatment period): 9
- number of subjects with Follicle size ≤ 13 mm ([3]; 5 mg, n = 11, treatment period): 1
- percentage of subjects with Follicle size > 13 mm + Estradiol > 27.2 pg/mL + Progesterone < 1.57 μg/L ([3]; 5 mg, n = 11, treatment period): 82%
- percentage of subjects with Follicle size ≤ 13 mm ([3]; 5 mg, n = 11, treatment period): 9%
- number of subjects with Follicle size > 13 mm + Estradiol > 27.2 pg/mL + Progesterone < 1.57 μg/L [3, 12]: 1
- percentage of subjects with Follicle size > 13 mm + Estradiol > 27.2 pg/mL + Progesterone < 1.57 μg/L [3, 12]: 9%
- ovulation during treatment (progesterone value <1.57 μg/L) ([3]; dosages ≥0.5 mg, 84 days): No ovulation occurred in most of the subjects
- maximum thickness of the endometrium within treatment epoch [4]: lower maximum thickness of the endometrium compared to other dosages
